Data on 10 molecules can be found in PubChem BioAssay (NCI).

Some test systems named below: OVCAR-5 ovarian; SNB-19 CNS; MDA-MB-435; NCI/ADR-RES ovarian; COLO 205 colon; DU-145 prostate; ACHN renal; MDA-MB-231 breast; SF-539 CNS; OVCAR-4 ovarian; RPMI-8226 leukemia; HOP-62 NSCLC; SF-268 CNS.
Test in all cases: NCI tumour cell line growth inhibition, 48 h

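Cultured in 96-well plates, cells were exposed to test compound for 48 hours across five concentrations. GI50 = concentration required for 50% inhibition of growth. TGI: concentration producing complete growth inhibition.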 Where only a bound is given, the exact number is not on record here.

Regarding `Nc1c(C(=O)O)nnc2ccc(Cl)cc12`, the TGI with OVCAR-5 ovarian, in the assay with SNB-19 CNS, with MDA-MB-435, in the assay on NCI/ADR-RES ovarian, in the assay with COLO 205 colon and in the assay with DU-145 prostate was more than 100 µM each time. In addition, the TGI in the assay with ACHN renal, in the assay on MDA-MB-231 breast, in the assay with SF-539 CNS, in the assay with OVCAR-4 ovarian, in the assay on RPMI-8226 leukemia and in the assay with HOP-62 NSCLC was more than 100 µM in each case. For the same molecule, the TGI with SF-268 CNS is more than 100 µM.
With `COc1cccc(C(=O)Oc2ccc(OS(=O)(=O)c3ccc(C)cc3)cc2)c1C#N`, the TGI with OVCAR-5 ovarian, with SNB-19 CNS, in the assay with MDA-MB-435, with NCI/ADR-RES ovarian, in the assay with COLO 205 colon and with DU-145 prostate was more than 100 µM each time. For the same molecule, the TGI with ACHN renal, in the assay with MDA-MB-231 breast, in the assay on SF-539 CNS, in the assay with OVCAR-4 ovarian, with RPMI-8226 leukemia and in the assay with HOP-62 NSCLC was more than 100 µM each time. Besides, in the assay with SF-268 CNS, the TGI is more than 100 µM.
Take `O=C1c2ccccc2C(=O)c2c(NCC(O)CO)ccc(NCC(O)CO)c21` (stereo unspecified): the TGI in the assay with OVCAR-5 ovarian, with SNB-19 CNS, with MDA-MB-435, in the assay on NCI/ADR-RES ovarian, in the assay on COLO 205 colon and in the assay with DU-145 prostate was more than 100 µM in each case. In addition, the TGI with ACHN renal, in the assay on MDA-MB-231 breast, in the assay on SF-539 CNS, in the assay with OVCAR-4 ovarian, with RPMI-8226 leukemia and with HOP-62 NSCLC was more than 100 µM in each case. The TGI in the assay on SF-268 CNS was more than 100 µM.
Regarding `COc1ccc(C2SC(N)=Nc3c2c(C)nn3C(=O)c2ccncc2)cc1OC` (stereo unspecified), the TGI with OVCAR-5 ovarian, in the assay on SNB-19 CNS, in the assay with MDA-MB-435, in the assay with NCI/ADR-RES ovarian, with COLO 205 colon and in the assay on DU-145 prostate was more than 10 µM each time. The TGI in the assay with ACHN renal, in the assay with MDA-MB-231 breast, in the assay on SF-539 CNS, in the assay with OVCAR-4 ovarian, in the assay on RPMI-8226 leukemia and in the assay with HOP-62 NSCLC was more than 10 µM throughout. The same molecule yielded a TGI in the assay with SF-268 CNS of more than 10 µM.
For `C=C(Cl)C(=CCl)CCC(Br)C(C)(C)Cl` (mixture of isomers), the TGI in the assay on OVCAR-5 ovarian, in the assay on SNB-19 CNS, in the assay on MDA-MB-435, with NCI/ADR-RES ovarian, in the assay with COLO 205 colon and with DU-145 prostate was more than 10 µM in each case. Further, the TGI with ACHN renal, with MDA-MB-231 breast, in the assay on SF-539 CNS, in the assay with OVCAR-4 ovarian, in the assay with RPMI-8226 leukemia and with HOP-62 NSCLC was more than 10 µM in each case. This molecule also had a TGI in the assay with SF-268 CNS of more than 10 µM.
Consider `COC(=O)C1=C(C(=O)OC)N(c2ccc(OC)cc2[N+](=O)[O-])C(c2ccc(C)cc2)=CC1c1ccc(OC)cc1OC` (stereo unspecified), for which the TGI in the assay on OVCAR-5 ovarian was more than 100 µM; in the assay with SNB-19 CNS, more than 95.6 µM; in the assay on MDA-MB-435, more than 100 µM; in the assay on NCI/ADR-RES ovarian, more than 77.8 µM; with COLO 205 colon it was 20.8 µM; in the assay on DU-145 prostate, more than 100 µM. The TGI with ACHN renal is more than 100 µM; with MDA-MB-231 breast, more than 74 µM; in the assay on SF-539 CNS it was 20.8 µM; in the assay on OVCAR-4 ovarian, more than 100 µM; in the assay on RPMI-8226 leukemia, 6.07 µM; with HOP-62 NSCLC, more than 72.7 µM. The molecule also displayed a TGI with SF-268 CNS of more than 100 µM.
`Cc1ccnc2[nH]c(-c3ccc4ccccc4c3)cc(=O)c12`: the TGI with OVCAR-5 ovarian worked out at 23.5 µM; in the assay with SNB-19 CNS, 31 µM; with MDA-MB-435 it was 0.453 µM; in the assay on NCI/ADR-RES ovarian it was 7.14 µM; in the assay on COLO 205 colon, 13.3 µM; with DU-145 prostate, 35.1 µM. Further, the TGI was determined as 13.6 µM in the assay with ACHN renal; 8.58 µM in the assay on MDA-MB-231 breast; 6.79 µM in the assay on SF-539 CNS; 4.45 µM in the assay on OVCAR-4 ovarian; 8.05 µM in the assay with RPMI-8226 leukemia; 12.6 µM in the assay on HOP-62 NSCLC. The TGI in the assay with SF-268 CNS is 39.4 µM. Also, in the assay on MDA-MB-435, the GI50 is 0.204 µM.
Consider `CN1C(=O)c2ccccc2OC12C=Cc1c(ccc3ccccc13)O2` (stereo unspecified), for which the TGI with OVCAR-5 ovarian was 27.4 µM; in the assay with SNB-19 CNS it was more than 59.4 µM; with MDA-MB-435, more than 24.5 µM; in the assay on NCI/ADR-RES ovarian it was 6.79 µM; in the assay with COLO 205 colon, 10.8 µM; in the assay with DU-145 prostate, more than 45 µM. In addition, the TGI is 10.2 µM in the assay with ACHN renal; 44.6 µM in the assay on MDA-MB-231 breast; 50.4 µM in the assay on SF-539 CNS; more than 52.7 µM in the assay on OVCAR-4 ovarian; more than 71.9 µM in the assay with RPMI-8226 leukemia; 27.3 µM in the assay with HOP-62 NSCLC. This molecule also displayed a TGI in the assay with SF-268 CNS of 31.4 µM.
With `NC(N)=NS(=O)(=O)c1ccc(NNc2c3ccccc3nc3c(C(=O)Nc4ccc(S(=O)(=O)Nc5ncccn5)cc4)cccc23)cc1`, the TGI in the assay on OVCAR-5 ovarian, in the assay with SNB-19 CNS, in the assay on MDA-MB-435, in the assay on NCI/ADR-RES ovarian, in the assay with COLO 205 colon and in the assay with DU-145 prostate was more than 100 µM in each case. For the same molecule, the TGI with ACHN renal, in the assay with MDA-MB-231 breast, in the assay with SF-539 CNS, in the assay on OVCAR-4 ovarian, in the assay with RPMI-8226 leukemia and with HOP-62 NSCLC was more than 100 µM in each case. In the assay on SF-268 CNS, the TGI is more than 100 µM.
Consider `O=C(Nc1ccccc1)c1cc(S(=O)(=O)NC2=NC(c3ccccc3)c3cc(Cl)ccc3N2)c(SSc2cc(Cl)c(C(=O)Nc3ccccc3)cc2S(=O)(=O)NC2=NC(c3ccccc3)c3cc(Cl)ccc3N2)cc1Cl` (stereo unspecified), for which the TGI in the assay with OVCAR-5 ovarian, in the assay with SNB-19 CNS, in the assay on MDA-MB-435, in the assay on NCI/ADR-RES ovarian, in the assay with COLO 205 colon and in the assay with DU-145 prostate was more than 100 µM each time. Also, the TGI is more than 100 µM in the assay with ACHN renal; more than 83.6 µM with MDA-MB-231 breast; more than 100 µM with SF-539 CNS; more than 100 µM with OVCAR-4 ovarian; more than 100 µM in the assay with RPMI-8226 leukemia; more than 100 µM in the assay on HOP-62 NSCLC. The same molecule came in with a TGI in the assay on SF-268 CNS of more than 100 µM.
